The subject of this data set is CAIX-expressing SK-RC-52 ccRCC tumor xenografts. The data set is described as follows: Biodistribution of [Al18F]XYIMSR-04 in mice bearing SK-RC-52 xenografts. The format is in vivo. The following applies: 1 h. Here is the method: The resulting Mice bearing SK-RC-52 xenografts within the solution was heated at 110 °C for 30 min. 0.6 mg of lower left flank were injected intravenously with 740 [Al19F]XYIMSR-04 was obtained as white crystal, after kBq (20 μCi) of [Al18F]XYIMSR-04 in 200 μL of PBS.
HPLC purification. Yield is 61 %. HPLC condition: At specific 1 hour time point mentioned in the paper, column Phenomenex, Luna 10 x 250 mm, 10 µ. 20/80/ mice (n = 5) were sacrificed by cervical dislocation and TFA MeCN/H O/TFA, flow 4 mL/min. Product was the blood was immediately collected by cardiac puncture. […]
eluded at 35.5 min. MS, calculated for C H AlFN N Heart, lungs, pancreas, spleen, fat, brain, muscle, small […]
aO S [M+Na] : 1426.4759; Found: 1426.4777. intestines, liver, bone, stomach, kidney, urinary bladder, […]
and tumor were collected. Each organ was weighed and Radiosynthesis the tissue radioactivity was measured with an automated gamma counter (1282 Compugamma CS, Pharmacia/
For convenience, Na18F in saline purchased from LKBNuclear, Inc., Mt. Waverly, Vic. Australia). The PETNET (Hackensack, NJ) was directly applied with to percentage of injected dose per gram of tissue (% ID/g) the synthesis with a slightly modified protocol (2). Due to was calculated by comparison with samples of a standard […]
reaction condition. corrected for radioactive decay.
Radiosynthesis of [Al18F]XYIMSR-04. 400μg of Data were expressed as mean ± standard deviation XYIMSR-04 in 200 μL water/Ethanol 1:1 was added to (SD). Prism software (GraphPAD, San Diego, California) 1 mL of Na18F in 0.9% saline containing 4.6-14.0 mCi was used to determine statistical significance. Statistical activity. To this mixture, 20 μL of 2 mM AlCl3/NaOAc significance was calculated using a paired t test. P-values solution and 200 μL of ethanol were added. The reaction < 0.0001 were considered significant. was kept at 105 °C for 20 min, then diluted to 2.0 mL The biodistribution data at 1 h is shown below. with water and loaded onto a preparative HPLC column The tumor uptake is 14.40%ID/g, with tumor-to –blood, for purification. Retention times for the radiolabeled -muscle and –kidney of 22.1, 9.74 and 0.28. compound, [Al18F]XYIMSR-04, and starting material, XYIMSR-04, were optimized to the point of baseline Imaging separation, with [Al18F]XYIMSR-04 eluting first.
[Al18F]XYIMSR-04 was obtained a radiochemical yield Mice harboring subcutaneous SK-RC-52 tumors of 4.3% (n=3) in specific radioactivity of 57-92 Ci/mmol with the lower left flank were injected with 7.4 MBq (200 in 1 hour. HPLC conditions: Phenomenex, Luna 10 x 250 μCi) of [Al18F]XYIMSR-04 in 250 µL of PBS (pH = 7.0) mm, 10μ. 20/80/0.1 MeCN/H2O/TFA, flow 4 mL/min. intravenously (tail vein). Anesthesia was then induced Product eluted at 35.5 min, while starting material eluted with 3% isofluorane and maintained at 2% isoflurane. […]
(also on this page, place not known: www.impactjournals.com/oncotarget/ Oncotarget, Supplementary Materials 2016 ([Al19F]XYIMSR-04). AlCl 3 2O/TFA, 57H79AlFN15N aO20S2 +: Na 18F [Al 18F]XYIMSR-04. XYIMSR-04 Na 18F AlCl 3/NaOAc [Al 18F]XYIMSR-04, [Al 18F]XYIMSR-04 MeCN/H 2O/TFA, [Al 19F]XYIMSR-04 [Al 18F]XYIMSR-04) […]

The text below walks through data of publication PMC5302928, “[^64Cu]XYIMSR-06: A dual-motif CAIX ligand for PET imaging of clear cell renal cell carcinoma” (Oncotarget, 2016).

Values joined by “and” are separate entries in the source; they are usually repeats but may differ in a detail not shown here. Equal values may be shown once.

Regarding `CC(CCC(=O)N[C@@H](CC(=O)N[C@@H](CC(=O)N[C@@H](CCCCn1cc(CCCC(=O)Nc2nnc(S(N)(=O)=O)s2)nn1)C(=O)NCCOCCOCCNC(=O)CN1CCN2CCN(CC1)CC(=O)[O][Al]([18F])[O]C(=O)C2)C(=O)O)C(=O)O)(c1ccc(O)cc1)c1ccc(O)cc1` [[Al^18F]XYIMSR-04], the Bladder uptake turned out to be 20.12 ± 12.51 %ID/g, the Blood uptake worked out at 0.65 ± 0.11 %ID/g, the Bone uptake is 1.91 ± 1.39 %ID/g and the Brain uptake was found to be 0.66 ± 0.04 %ID/g. Besides, the Fat uptake came to 1.54 ± 0.25 %ID/g, the Heart uptake is 5.03 ± 0.51 %ID/g, the “Kidney (kid) uptake” value was determined as 50.84 ± 2.65 %ID/g and the Liver uptake is on record as 5.55 ± 0.91 %ID/g. The Lung uptake is 34.07 ± 5.85 %ID/g, the “Muscle (mm) uptake” value amounted to 1.74 ± 0.58 %ID/g, the Pancreas uptake came to 3.47 ± 0.16 %ID/g and the Sm. intestine uptake was 9.59 ± 1.04 %ID/g. Besides, the Spleen uptake worked out at 0.54 ± 0.18 %ID/g, the Stomach uptake came to 21.62 ± 1.85 %ID/g, the Tumor uptake worked out at 14.4 ± 2.2 %ID/g and the “Tumor/kid (kidney) ratio” value is reported as 0.28 ± 0.03. Further, the “Tumor/mm (muscle) ratio” value was 9.7 ± 2.9. Where the note is “listed as [Al18F]XYIMSR-04”, the Tumor/Blood ratio was 22.1 and 22.1 ± 1.5; the “Tumor/kid (kidney) ratio” value is given as 0.28; the “Tumor/mm (muscle) ratio” value was 9.74.
